This assay relates to humanem Citrat-Plasma. Nature of the assay: aPTT time prolongation in plasma (Biomatic B10 coagulometer). In kind it is biochemical. The settings on record: effective substance concentration, from a dose-response curve, at which the aPTT time is doubled versus control; human citrate plasma, 37°C.

Each structure is given as a SMILES string. Where a name gives a salt, the structure may show the parent alone.

`Cn1c(CNc2ccc(C(=N)N)cc2)nc2cc(C3(C(=NOCC(=O)O)c4ccccn4)CC3)ccc21` (mixture of isomers) [B, (E/Z)-2-(4-Amidinophenylaminomethyl)-1-methyl-5-[1-[(pyridin-2-yl)-(carboxymethyloxyimino)methylen]cyclopropyl]-benzimidazol-hydrochlorid]: the “aPTT-Zeit (ED200 in µM)” value is given as 0.42 µM.

Turning to `Cl.Cn1c(CNc2ccc(C(=N)N)cc2)nc2cc(C3(C(=O)N4CCCC4)CC3)ccc21` [A, 2-(4-Amidinophenylaminomethyl)-1-methyl-5-[1-(pyrrolidin-1-yl-carbonyl)cyclopropyl]-benzimidazol-hydrochlorid], the “aPTT-Zeit (ED200 in µM)” value is reported as 0.12 µM.

Consider `Cl.Cn1c(CNc2ccc(C(=N)N)cc2)nc2cc(C(C)(NCCC(=O)O)C(=O)N3CCCC3)ccc21` (stereo not shown) [C, 2-(4-Amidinophenylaminomethyl)-1-methyl-5-[1-(2-carboxyethylamino)-1-(pyrrolidin-1-yl-carbonyl)-ethyl]-benzimidazol-hydrochlorid], for which the “aPTT-Zeit (ED200 in µM)” value is reported as 0.31 µM.

Take `Cl.Cn1c(CNc2ccc(C(=N)N)cc2)nc2cc(C3(C(=O)N4CCCC4CCC(=O)O)CC3)ccc21` (stereo not shown) [D, 2-(4-Amidinophenylaminomethyl)-1-methyl-5-[1-[2-(2-carboxyethyl)-pyrrolidin-1-yl-carbonyl]cyclopropyl]-benzimidazol-hydrochlorid]: the “aPTT-Zeit (ED200 in µM)” value amounted to 0.29 µM.

Turning to `Cc1nc(CCC(=O)O)n(Cc2ccc3c(c2)nc(CNc2ccc(C(=N)N)cc2)n3C)c1C.Cl` [E, 2-(4-Amidinophenylaminomethyl)-1-methyl-5-[2-(2-carboxyethyl)-4,5-dimethyl-imidazol-1-yl-methyl]-benzimidazol-hydrochlorid], the “aPTT-Zeit (ED200 in µM)” value is listed as 0.29 µM.

With `Cl.Cn1c(CNc2ccc(C(=N)N)cc2)nc2cc(C(C)(NCC(=O)O)C(=O)N3CCCC3)ccc21` (stereo not shown) [F, 2-(4-Amidinophenylaminomethyl)-1-methyl-5-[1-(carboxymethylamino)-1-(pyrrolidin-1-yl-carbonyl)-ethyl]-benzimidazol-hydrochlorid], the “aPTT-Zeit (ED200 in µM)” value is 0.20 µM.

`CN(CC(C)(C(=O)N1CCCC1)c1ccc2c(c1)nc(CNc1ccc(C(=N)N)cc1)n2C)C(=O)CC(=O)O` (stereo not shown) [G, 2-(4-Amidinophenylaminomethyl)-1-methyl-5-[1-(N-methylcarboxymethylcarbonylaminomethyl)-1-methyl-1-(pyrrolidin-1-yl-carbonyl)-ethyl]-benzimidazol-dihydrochlorid]: the “aPTT-Zeit (ED200 in µM)” value is reported as 0.17 µM.

(Values after EP1095025B1, “BENZIMIDAZOLES, PRODUCTION THEREOF AND USE THEREOF AS MEDICAMENTS” (Boehringer Ingelheim Pharma KG, priority 1998, dated 2000).)
